Measured values reported in the supplement of paper PMC11616607.

How the values were obtained:
Experiment in all cases: drug sensitivity score (DSS) from 5-point dose-response viability curve (DSS (area-under-curve based score)); higher = more sensitive (stronger growth inhibition or killing); extreme values may be limits of the assay
Conditions in all cases: exposure time: 72 h; concentration range: 5 concentrations over 10,000-fold range
CAOV3 = tested on: CAOV3
How it was run: (§1)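 Drugs in DMSO or water were acoustically dispensed (Echo 550) into 384-well plates at five concentrations across a 10,000-fold range. Ovarian cancer and normal ovarian cells (1,500 per well) were then added, incubated for 3 days at 37°C with 5% CO2, and read for viability by CellTiter-Glo luminescence on a PHERAstar FS. From these readings, Breeze software derived a drug sensitivity score per cell line and drug, with higher values meaning more sensitive and zero meaning no response.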

OVCAR8 = tested on: OVCAR8
How it was run: as §1

HOSE2C = tested on: HOSE2C
How it was run: as §1

OVCAR4 = tested on: OVCAR4
How it was run: as §1

Ovsaho = tested on: Ovsaho
How it was run: as §1

COV362 = tested on: COV362
How it was run: as §1

HOSE1C = tested on: HOSE1C
How it was run: as §1

Kuramochi = tested on: Kuramochi
How it was run: as §1

OV90 = tested on: OV90
How it was run: as §1

COV318 = tested on: COV318
How it was run: as §1

OVCAR5 = tested on: OVCAR5
How it was run: as §1

JHOS2 = tested on: JHOS2
How it was run: as §1

SMILES	drug sensitivity score (CAOV3)	drug sensitivity score (OVCAR8)	drug sensitivity score (HOSE2C)	drug sensitivity score (OVCAR4)	drug sensitivity score (Ovsaho)	drug sensitivity score (COV362)	drug sensitivity score (HOSE1C)	drug sensitivity score (Kuramochi)	drug sensitivity score (OV90)	drug sensitivity score (COV318)	drug sensitivity score (OVCAR5)	drug sensitivity score (JHOS2)
CCCCC(=O)OCC(=O)[C@]1(O)Cc2c(O)c3c(c(O)c2[C@@H](O[C@H]2C[C@H](NC(=O)C(F)(F)F)[C@H](O)[C@H](C)O2)C1)C(=O)c1c(OC)cccc1C3=O [Valrubicin]	10.8	9.5	8.3	3.8	10.9	2.4	10.1	6.6	7.7	4.4	6.2	6.6
NC(=O)NO [Hydroxyurea]	1.1	5.1	8	0	2.3	0.1	8.2	0	2.8	1.7	2.9	3.3
Cn1cc(C2=Nc3cc(NC(=O)C(N)C4CCCCC4)cc4c3C2=CNNC4=O)cn1 (centres undefined)	11	14.7	18.3	15.4	6.8	5.2	13.5	7.3	11.6	6.2	6.4	5.1
CCCCc1nc2cc(/C=C/C(=O)NO)ccc2n1CCN(CC)CC [Pracinostat]	13.2	19.5	18.5	10.4	10.5	5.1	22.2	13.5	14.6	10	20.9	13
O=C(Nc1ccc(OC(F)(F)Cl)cc1)c1cnc(N2CC[C@@H](O)C2)c(-c2cc[nH]n2)c1 [Asciminib]	0	0	0	0.3	0	0	0	0.2	0	0	0.4	0
CNCc1ccc(-c2[nH]c3cc(F)cc4c3c2CCNC4=O)cc1 [Rucaparib]	0	1.8	0	0	0.4	0	0	0.3	1.7	0.5	1.2	0.7
CC1(C)C(C(=O)Nc2ccc(S(=O)(=O)c3ccc(NC(=O)C4C(C)(C)C4(C)C)cc3)cc2)C1(C)C [BRD7116]	0.3	0	0	2.1	3.8	0	0	2.1	0	0.1	2.1	0.7
CCc1nc(C(N)=O)c(Nc2ccc(N3CCC(N4CCN(C)CC4)CC3)c(OC)c2)nc1NC1CCOCC1 [Gilteritinib]	3.9	0.4	0	0.1	0	0.4	0	0.7	2.2	0.6	4.9	0
COc1cc2nccc(Oc3ccc(NC(=O)C4(C(=O)Nc5ccc(F)cc5)CC4)cc3)c2cc1OC [Cabozantinib]	0.4	0	0.6	0	0	0.2	0	3.1	4.5	2.2	1.5	1
CNC(=O)[C@@H](NC(=O)[C@H](CC(C)C)[C@H](O)C(=O)NO)C(C)(C)C [Marimastat]	1.3	0.1	0	0.1	0	0	0	0	0.1	0	1.6	0
C=CC(=O)Nc1cccc(Nc2nc(Nc3ccc(OCCOC)cc3)ncc2F)c1 [Spebrutinib]	0.3	0	0.4	2	2.2	0.9	0	1.6	1.3	2	1.2	1.9
COCCNCc1ccc(-c2cc3nccc(Oc4ccc(NC(=S)NC(=O)Cc5ccc(F)cc5)cc4F)c3s2)nc1 [Glesatinib]	0	0	1.9	0	0.2	1.6	2.9	0	0	0.1	1.2	0
CCn1c(C(=O)N(C2CC2)C2CC2)cc2c3c(ncn3C)c(Nc3cc(C)n(C)n3)nc21	0	0	0	0.3	0	0.2	0	2.6	0.5	0.4	0	0
CN(C)C1CCN(C(=O)c2ccc(NC(=O)Nc3ccc(-c4nc(N5CCOCC5)nc(N5CCOCC5)n4)cc3)cc2)CC1 [Gedatolisib]	10	7.5	13.1	14.8	13.4	4.8	17.9	11.4	15.4	3.2	12.3	7.4
Cc1cc(F)c(C(=O)Nc2cccc(-c3nncn3C(C)C)n2)cc1-n1cnc(C2CC2)c1 [Selonsertib]	0	0	0	0	0	0	0	0	0.1	0	0	0
O=C(NC[C@H](O)CN1CCc2ccccc2C1)c1cc(NC2COC2)ncn1	0	0	0	2	0	0	0	0.4	0	0.2	0.8	0.7
Cc1cn(-c2cc(NC(=O)c3ccc(C)c(Nc4nccc(-c5cccnc5)n4)c3)cc(C(F)(F)F)c2)cn1 [Nilotinib]	0	3.4	0	0.9	0	1.2	0	0	0	0.1	2	0
CCS(=O)(=O)Nc1ccc(Oc2ccc(F)cc2F)c(-c2cn(C)c(=O)c3[nH]ccc23)c1 [Mivebresib]	25.3	24.7	25.6	18.3	22.8	9.4	30.7	22.6	22.1	6.4	20.2	18.4
CCC1=C[C@@H]2CN(C1)Cc1c([nH]c3ccccc13)[C@@](C(=O)OC)(c1cc3c(cc1OC)N(C)[C@H]1[C@@](O)(C(=O)OC)[C@H](OC(C)=O)[C@]4(CC)C=CCN5CC[C@]31[C@@H]54)C2 [Vinorelbine]	16.4	27.6	32.1	12.7	19.9	8.9	30.2	12.6	26.5	8.1	19.5	9.7
O=C(O)CC[C@H]1CC[C@@](c2cc(F)ccc2F)(S(=O)(=O)c2ccc(Cl)cc2)CC1 [MK-0752]	0	0	0	0	0	0	0	0	0.2	0	0.9	0
CNC(=O)c1cc(Oc2ccc(NC(=O)Nc3ccc(Cl)c(C(F)(F)F)c3)cc2)ccn1 [Sorafenib]	0	0	0	0	0	0	0	0	0	0	0	0
CNC(=O)c1ccccc1Nc1nc(Nc2ccc3c(c2OC)CCC[C@H](N2CCN(CCO)CC2)C3)ncc1Cl	8.2	4.9	8.4	5.2	8.5	5.4	4.8	6.4	8.8	5.2	9.1	7.6
CCN(CC)CCNC(=O)c1c(C)[nH]c(/C=C2\C(=O)Nc3ccc(F)cc32)c1C [Sunitinib]	0	0	0	0	0	0	0	0	0	0	0	0.1
COC(=O)c1ccc2c(c1)NC(=O)/C2=C(\Nc1ccc(N(C)C(=O)CN2CCN(C)CC2)cc1)c1ccccc1 [Nintedanib]	0.2	3.2	6.3	3.6	5.5	1.8	3.1	4.2	3.5	2.5	7.9	0.6
CC(=O)Nc1cccc(-n2c(=O)n(C3CC3)c(=O)c3c(Nc4ccc(I)cc4F)n(C)c(=O)c(C)c32)c1 [Trametinib]	11.8	3.4	0	1.9	12.4	4.9	0	7.1	25	0	12.9	6.7
Nc1cc(C(F)(F)F)c(-c2cc(N3CCOCC3)nc(N3CCOCC3)n2)cn1 [Buparlisib]	8.7	7.7	8.8	5.3	6.5	3.8	8.6	6.1	5.1	4.6	8.8	4.6
COc1cccc2c1C(=O)c1c(O)c3c(c(O)c1C2=O)C[C@@](O)(C(=O)CO)C[C@@H]3O[C@H]1C[C@H](N)[C@H](O)[C@H](C)O1 [Doxorubicin]	8.6	8.8	0	3.5	7.6	2.3	0	6.2	6.7	3.6	4.6	5.9
